In PMC8597757, “Pharmacokinetic and Safety Profile of the Novel HIV Nonnucleoside Reverse Transcriptase Inhibitor MK-8507 in Adults without HIV” (Antimicrobial Agents and Chemotherapy, 2021):

Tested on: CYP3A4
Experiment: Midazolam drug-drug interaction assessment
Conditions: 2 mg midazolam with third once-weekly 400-mg dose of MK-8507 vs midazolam alone
Description: Study 2 (protocol MK-8507-002) was a randomized, serial, 3-panel (A to C), single- and multiple-QW rising-dose trial. Single doses of 400, 800, and 1,200 mg MK-8507 or placebo tablet formulation were administered on day 1 to panels A, B, and C, respectively, to continue dose escalation beyond the dose range in study 1. Following a washout period of 3 weeks, the multiple-dose portion of the trial began. Participants in panels A, B, and C received QW doses of 100, 200, or 400 mg MK-8507 or placebo for 3 weeks (i.e., on days 22, 29, and 36), respectively. […] The PK profile of midazolam following a single oral dose alone or after multiple oral dose administration of MK-8507 was also evaluated. […]
Plasma samples collected for midazolam assay were analyzed by Syneos Health (Québec, Canada). […] The lower limit of quantitation was 20.00 pg/mL, and the analytical range was 20.00 to 20,000.00 pg/mL.
PK parameter values were calculated by noncompartmental analyses using the software Phoenix WinNonlin Professional (version 6.3) (Certara, Princeton, NJ, USA). […] AUC0–∞ and AUC0–168hr were calculated using the linear-trapezoidal method for ascending concentrations and the log-trapezoidal method for descending concentrations (linear up/log down). […]

Cc1ncc2n1-c1ccc(Cl)cc1C(c1ccccc1F)=NC2 [Midazolam, midazolam]
decrease in midazolam AUC when coadministered with MK-8507: 12% | decrease in midazolam Cmax when coadministered with MK-8507: 19%
